Assay results published in patent publication US20260200943A1, “COMPOUNDS FOR TREATING CANCER” (Genesis Therapeutics, Inc., priority 2022, published 2026).
Where two headings read alike, the source gives them in different places.

Key:
[1] = not given; remark: listed apart in the source
CDK2/CyclinA2 [2] = target: T1, CDK2/CyclinA2 (Homo sapiens, UniProt P24941); experiment: CDK2/CyclinA2 ChEF Assay (Table A); assay type: biochemical
T1 construct: Wild-type, full length CDK2 in complex with wildtype, full length CyclinA2: Carna Cat #04-103; purchased Carna 04-103
Description: 500 nL of 50× compound in 100% DMSO is added to a 384-well low volume, white assay plate. 19.5 μL of 1.3×CDK2/CyclinA2 (Wild-type, full length CDK2 in complex with wildtype, full length CyclinA2: Carna Cat #04-103 diluted in assay buffer (50 mM Hepes, 0.01% Brij-35, 10 mM MgCl2, 0.5 mM EGTA, 1% Glycerol, and 1.2 mM DTT) is added to the plates on top of the compound and pre-incubated for 30 minutes at room temperature. Following the incubation, 5 μL of 5×Sox-chromophore (CSox) labeled peptide substrate (AQT0255, AssayQuant) & ATP diluted in assay buffer is added to the plate to initiate the reaction. The assay is incubated at room temperature for 45 min after initiation. The CSox peptide substrate is phosphorylated by CDK2/A2 upon ATP hydrolysis.
(§1) The fluorescent intensity measurement of the assay plate for all assays described above is read on a microplate reader once the assay is initiated and again at the completion of the assay. Phosphorylation of the CSox-based peptide substrate sensor results in an immediate increase in fluorescence. These raw fluorescence intensity values are normalized to calculate percent inhibition, which are fit to a four-parameter logistic curve and IC50 values are calculated. IC50 values are converted to Ki using substrate, KM^app values, and the Cheng-Prusoff equation.

CDK1/CyclinB1 [3] = target: T2, CDK1/CyclinB1 (Homo sapiens, UniProt P06493); experiment: CDK1/CyclinB1 ChEF Assay (Table A); assay type: biochemical; conditions: read-out: CDK1/CCNB1 ChEF Ki: Average Ki;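 note: Ki reported in nM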
T2 construct: Wild-type, full length CDK1 in complex with wildtype, full length CyclinB1: Carna Cat #04-102; purchased Carna 04-102
Description: 500 nL of 50× compound in 100% DMSO is added to a 384-well low volume, white assay plate. 19.5 μL of 1.3×CDK1/CyclinB1 (Wild-type, full length CDK1 in complex with wildtype, full length CyclinB1: Carna Cat #04-102) diluted in assay buffer (50 mM Hepes, 0.01% Brij-35, 10 mM MgCl2, 0.5 mM EGTA, 1% Glycerol, and 1.2 mM DTT) is added to the plates on top of the compound and pre-incubated for 30 minutes at room temperature. Following the incubation, 5 μL of 5×Sox-chromophore (CSox) labeled peptide substrate (AQT0297, AssayQuant) & ATP diluted in assay buffer is added to the plate to initiate the reaction. The assay is incubated at room temperature for 30 min after initiation. The CSox peptide substrate is phosphorylated by CDK1/B1 upon ATP hydrolysis.
as §1

CDK9/CyclinT1 [4] = target: T3, CDK9/CyclinT1 (Homo sapiens, UniProt P50750); experiment: CDK9/CyclinT1 ChEF Assay (Table A); assay type: biochemical; parameters: Wild-type, full length CDK9 in complex with wildtype, full length CyclinT1: Invitrogen Cat #PV4131; purchased Invitrogen PV4131; conditions: 10xKm, read-out: CDK9/CCNT1 ChEF 10xKm Ki: Average Ki
Description: 500 nL of 50× compound in 100% DMSO is added to a 384-well low volume, white assay plate. 19.5 μL of 1.3×CDK9/CyclinT1 (Wild-type, full length CDK9 in complex with wildtype, full length CyclinT1: Invitrogen Cat #PV4131) diluted in assay buffer (50 mM Hepes, 0.01% Brij-35, 10 mM MgCl2, 0.5 mM EGTA, 1% Glycerol, and 1.2 mM DTT) is added to the plates on top of the compound and pre-incubated for 30 minutes at room temperature. Following the incubation, 5 μL of 5×Sox-chromophore (CSox) labeled peptide substrate (AQT0449, AssayQuant) & ATP diluted in assay buffer is added to the plate to initiate the reaction. The assay is incubated at room temperature for 120 min after initiation. The CSox peptide substrate is phosphorylated by CDK9/T1 upon ATP hydrolysis.
as §1
Target sequence in this assay (P50750 whole entry): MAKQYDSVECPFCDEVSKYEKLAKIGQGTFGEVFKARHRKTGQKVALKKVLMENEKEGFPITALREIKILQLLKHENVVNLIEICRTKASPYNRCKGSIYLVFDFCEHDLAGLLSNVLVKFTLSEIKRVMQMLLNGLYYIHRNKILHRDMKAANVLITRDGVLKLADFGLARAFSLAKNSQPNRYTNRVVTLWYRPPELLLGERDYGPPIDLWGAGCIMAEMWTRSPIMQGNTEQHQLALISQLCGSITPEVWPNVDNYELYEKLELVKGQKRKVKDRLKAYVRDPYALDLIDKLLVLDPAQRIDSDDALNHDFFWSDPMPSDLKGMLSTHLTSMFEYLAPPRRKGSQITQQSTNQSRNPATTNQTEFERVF
Target sequence in this assay (O60563 whole entry partner): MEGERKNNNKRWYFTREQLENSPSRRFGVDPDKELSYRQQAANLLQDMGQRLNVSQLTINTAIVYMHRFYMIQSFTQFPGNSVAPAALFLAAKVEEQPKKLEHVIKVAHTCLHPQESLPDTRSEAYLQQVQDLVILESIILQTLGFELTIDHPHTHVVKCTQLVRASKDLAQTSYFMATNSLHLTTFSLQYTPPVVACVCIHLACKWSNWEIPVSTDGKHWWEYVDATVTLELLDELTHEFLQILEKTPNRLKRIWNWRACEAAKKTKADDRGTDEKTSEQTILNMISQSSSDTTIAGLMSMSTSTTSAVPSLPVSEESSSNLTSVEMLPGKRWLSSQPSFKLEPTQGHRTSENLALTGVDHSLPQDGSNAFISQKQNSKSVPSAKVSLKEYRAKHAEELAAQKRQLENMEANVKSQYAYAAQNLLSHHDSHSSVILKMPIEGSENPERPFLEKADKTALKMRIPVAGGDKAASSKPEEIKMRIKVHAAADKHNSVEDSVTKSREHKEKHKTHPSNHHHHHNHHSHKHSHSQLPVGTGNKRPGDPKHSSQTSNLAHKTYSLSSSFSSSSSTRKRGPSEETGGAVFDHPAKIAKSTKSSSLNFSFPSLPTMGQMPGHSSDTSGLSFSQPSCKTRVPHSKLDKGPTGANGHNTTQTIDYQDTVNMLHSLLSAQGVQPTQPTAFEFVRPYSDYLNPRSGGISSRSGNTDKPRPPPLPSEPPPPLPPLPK

CDK9/CyclinT1 [5] = target: T3, CDK9/CyclinT1; experiment: CDK9/CyclinT1 Mobility Shift Assay (Caliper, Table B); assay type: biochemical; parameters: Wild-type, full length CDK9 in complex with wildtype, CyclinT1 (1-259): Biortus Cat #BP480/792/691; purchased Biortus BP480/792/691; conditions: read-out: CDK9/Cyclin T1 Caliper Ki: Average Ki
Description: 10 nL of 2000× compound in 100% DMSO is added to a 384-well polypropylene assay plate. 15 μL of 1.3×CDK9/T1 and 1.3× fluorescent substrate (Wild-type, full length CDK9 in complex with wildtype, CyclinT1 (1-259): Biortus Cat #BP480/792/691 and FL-Peptide 34: PerkinElmer Cat #760643) diluted in kinase buffer (50 mM Hepes, 0.01% Brij-35, 10 mM MgCl2, 1 mM EGTA, 0.05% BSA, and 2 mM DTT) is added to the plates on top of the compound, mixed, and pre-incubated for 30 minutes at room temperature. The fluorescently labeled peptide substrate is phosphorylated by CDK9/T1 upon ATP hydrolysis. Following the incubation, 5 μL of 4×ATP diluted in kinase buffer is added to the plate to initiate the reaction. Following the 30-minute incubation, the reaction is stopped by adding 75 μL of stopping buffer containing 0.5 M EDTA.
(§2) The assay plate is then read on a Lab Chip EZ Reader which separates the fluorescently labeled substrate and product peptides through a mobility difference. The phosphorylation of the substrate imparts a negative charge, which allows differences in separation as both are pulled through the microfluidic chip. The ratio of substrate and product values are used to generate percent conversion. These raw percent conversion values are normalized to calculate percent inhibition, which are fit to a four-parameter logistic curve and IC50 values are calculated. IC50 values are converted to Ki using substrate, Kmapp values, and the Cheng-Prusoff equation.
Target sequence in this assay (P50750 whole entry): as the sequence (P50750 whole entry) above
Target sequence in this assay (O60563 1-259 partner limits assumed): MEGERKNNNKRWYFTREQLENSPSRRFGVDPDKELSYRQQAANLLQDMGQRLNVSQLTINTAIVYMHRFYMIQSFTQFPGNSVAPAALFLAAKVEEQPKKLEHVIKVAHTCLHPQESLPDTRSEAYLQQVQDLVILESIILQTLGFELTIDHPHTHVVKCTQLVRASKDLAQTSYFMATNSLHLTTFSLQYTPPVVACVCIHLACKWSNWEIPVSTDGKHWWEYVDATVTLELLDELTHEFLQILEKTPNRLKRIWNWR

CDK2/CyclinA2 [6] = target: T1, CDK2/CyclinA2; experiment: CDK2/Cyclin A2 Mobility Shift Assay (Caliper, Table B); assay type: biochemical; conditions: for Ki: Caliper mobility shift, 10xKm, read-out: CDK2/CCNA2 Caliper 10xKm Ki: Average Ki
Description: 10 nL of 2000× compound in 100% DMSO is added to a 384-well polypropylene assay plate. 15 μL of 1.3×CDK2/A2 and 1.3× fluorescent substrate (Wild-type, full length CDK2 in complex with wildtype, full length CyclinA2: Carna Cat #04-103 and FL-Peptide 18: PerkinElmer Cat #760362) diluted in kinase buffer (50 mM Hepes, 0.01% Brij-35, 10 mM MgCl2, 1 mM EGTA, 0.05% BSA, and 2 mM DTT) is added to the plates on top of the compound, mixed, and pre-incubated for 30 minutes at room temperature. The fluorescently labeled peptide substrate is phosphorylated by CDK2/A2 upon ATP hydrolysis. Following the incubation, 5 μL of 4×ATP diluted in kinase buffer is added to the plate to initiate the reaction. Following the 30-minute incubation, the reaction is stopped by adding 75 μL of stopping buffer containing 0.5 M EDTA.
as §2, with “Ki through” for “Ki”, “substrate and Km^app” for “substrate, Kmapp”

CDK1/CyclinB1 [7] = target: T2, CDK1/CyclinB1; experiment: CDK1/Cyclin B1 Mobility Shift Assay (Caliper, Table B); assay type: biochemical; conditions: read-out: CDK1/CCNB1 Caliper Ki: Average Ki
Description: 10 nL of 2000× compound in 100% DMSO is added to a 384-well polypropylene assay plate. 15 μL of 1.3×CDK1/B1 and 1.3× fluorescent substrate (Wild-type, full length CDK1 in complex with wildtype, full length CyclinB1: Carna Cat #04-102 and FL-Peptide 29: PerkinElmer Cat #760429) diluted in kinase buffer (50 mM Hepes, 0.01% Brij-35, 10 mM MgCl2, 1 mM EGTA, 0.05% BSA, and 2 mM DTT) is added to the plates on top of the compound, mixed, and pre-incubated for 30 minutes at room temperature. The fluorescently labeled peptide substrate is phosphorylated by CDK1/B1 upon ATP hydrolysis. Following the incubation, 5 μL of 4×ATP diluted in kinase buffer is added to the plate to initiate the reaction. Following the 30-minute incubation, the reaction is stopped by adding 75 μL of stopping buffer containing 0.5 M EDTA.
as §2

T2 sequence (P06493 whole entry): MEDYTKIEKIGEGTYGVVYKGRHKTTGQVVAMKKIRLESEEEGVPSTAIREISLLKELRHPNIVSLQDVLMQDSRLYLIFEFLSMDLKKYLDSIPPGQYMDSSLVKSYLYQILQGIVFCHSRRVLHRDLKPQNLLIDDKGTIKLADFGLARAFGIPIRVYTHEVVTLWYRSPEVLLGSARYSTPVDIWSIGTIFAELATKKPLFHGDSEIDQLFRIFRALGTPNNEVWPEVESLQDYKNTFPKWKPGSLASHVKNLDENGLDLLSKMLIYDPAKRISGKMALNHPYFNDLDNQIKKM
T2 sequence (P14635 whole entry partner): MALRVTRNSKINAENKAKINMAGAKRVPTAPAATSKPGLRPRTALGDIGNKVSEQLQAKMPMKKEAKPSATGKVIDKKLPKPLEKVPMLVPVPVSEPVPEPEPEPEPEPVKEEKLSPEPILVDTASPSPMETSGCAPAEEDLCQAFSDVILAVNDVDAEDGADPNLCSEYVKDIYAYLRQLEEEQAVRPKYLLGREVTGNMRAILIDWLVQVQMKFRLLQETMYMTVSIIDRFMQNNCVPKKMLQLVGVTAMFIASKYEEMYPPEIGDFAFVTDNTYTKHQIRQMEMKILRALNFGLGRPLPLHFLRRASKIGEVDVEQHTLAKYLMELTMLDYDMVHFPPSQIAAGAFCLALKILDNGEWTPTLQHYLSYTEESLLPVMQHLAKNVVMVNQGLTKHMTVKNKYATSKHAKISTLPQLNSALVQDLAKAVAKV

SMILES	Ki (CDK2/CyclinA2 [6])	CDK2/CCNA2 Caliper 10xKm Ki: CDK2/A2 Selectivity over CDK1/B1 (CDK2/CyclinA2 [6])	CDK2/CCNA2 Caliper 10xKm Ki: CDK2/A2 Selectivity over CDK9 (CDK2/CyclinA2 [6])	Ki (CDK1/CyclinB1 [7])	further results
CC(C)(C)n1nc2cc1[C@H]1CC[C@H](C1)OC(=O)NCCCCCCNS(=O)(=O)C1CCC(CC1)N2	–	–	–	–	ring closure, yield of all isomers (from CC(C)(C)OC(=O)NCCCCCCNS(=O)(=O)C1CCC(Nc2cc([C@H]3CC[C@@H](OC(=O)Oc4ccc([N+](=O)[O-])cc4)C3)n(C(C)(C)C)n2)CC1, other bond, DIPEA, DCE, 4.26 mM, 25.0 °C, 18.0 h, 2 steps): 50%
CC(C)(C)n1nc2cc1[C@H]1CC[C@H](C1)OC(=O)NCCOCCNS(=O)(=O)c1ccc(c(F)c1)N2	–	–	–	–	ring closure, yield of all isomers (from CC(C)(C)OC(=O)NCCOCCNS(=O)(=O)c1ccc(Nc2cc([C@H]3CC[C@@H](OC(=O)Oc4ccc([N+](=O)[O-])cc4)C3)n(C(C)(C)C)n2)c(F)c1, other bond, DIPEA, DCE, 5.25 mM, 25.0 °C, 18.0 h, 2 steps): 62.3%
Cn1ncc2c1C(=O)NCCCCCOc1nc(ncc1Br)NC1CCN(CC1)S2(=O)=O	–	–	–	–	ring closure, yield of all isomers (from Cn1ncc(S(=O)(=O)N2CCC(N)CC2)c1C(=O)NCCCCCOc1nc(Cl)ncc1Br, snar bond, K2CO3, DMSO, 6.02 mM, 110.0 °C, 2.0 h): 33%
Cn1ncc2c1C(=O)NCCCCCOc1nc(ncc1Cl)NC1CCN(CC1)S2(=O)=O	–	–	–	–	ring closure, isolated yield ([1]; from Cn1ncc(S(=O)(=O)N2CCC(N)CC2)c1C(=O)NCCCCCOc1nc(Cl)ncc1Br, snar bond, 19-membered ring, K2CO3, DMSO, 6.02 mM, 110.0 °C): 33%
NCCCCCOc1cc(Nc2ncc(C3CCC(OC(=O)Oc4ccc([N+](=O)[O-])cc4)C3)cn2)ccc1S(N)(=O)=O (stereo not shown)	–	–	–	–	ring closure, isolated yield ([1]; the molecule shown is the open-chain precursor, other bond, 20-membered ring, DIEA, DMF, 41.5 mM, 50.0 °C): 11.1%
NS(=O)(=O)c1ccc2cc1NCCCCCNC(=O)OC1CCC(C1)c1cnc(nc1)N2 (stereo not shown)	–	–	–	–	ring closure, yield of all isomers (from CC(C)(C)OC(=O)NCCCCCNc1cc(Nc2ncc(C3CCC(OC(=O)Oc4ccc([N+](=O)[O-])cc4)C3)cn2)ccc1S(=O)(=O)NC(=O)OC(C)(C)C, other bond, DIEA, DMF, 75.0 mM, 50.0 °C, 3.0 h, 2 steps): 39.5%
NS(=O)(=O)c1ccc2cc1OCCCCCNC(=O)OC1CCC(C1)c1cnc(nc1)N2 (stereo not shown)	–	–	–	–	ring closure, yield of all isomers (from NCCCCCOc1cc(Nc2ncc(C3CCC(OC(=O)Oc4ccc([N+](=O)[O-])cc4)C3)cn2)ccc1S(N)(=O)=O, other bond, DIEA, DMF, 41.5 mM, 50.0 °C, 2.0 h): 11.1%
O=C1NCCCCn2cc(cn2)S(=O)(=O)N2CCC(CC2)Nc2cc([nH]n2)[C@H]2CC[C@H](C2)O1 [Compound 94, (11S,13R,24Z,64E)-21H,61H-13-oxa-5-thia-3,11-diaza-4(4,1)-piperidina-2(5,3),6(4,1)-dipyrazola-1(1,3)-cyclopentanacyclotridecaphan-12-one 5,5-dioxide]	–	–	–	–	Ki (CDK2/CyclinA2 [2]; 10xKm, read-out: CDK2/CCNA2 ChEF 10xKm Ki: Average Ki): 25 to 100 nM; CDK2/CCNA2 ChEF 10xKm Ki: CDK2/A2 Selectivity over CDK9/T1 (CDK2/CyclinA2 [2]; selectivity over CDK9/T1): A (A>10); Ki (CDK1/CyclinB1 [3]): ≥ 100 nM; Ki (CDK9/CyclinT1 [4]): 1 to 25 nM; Ki (CDK9/CyclinT1 [5]): 25 to 100 nM
O=C1NCCCCCCCOc2cccc(n2)Nc2ncc(cn2)[C@@H]2CC[C@@H](C2)O1 [Compound 111]	25 to 100 nM	C (C<5)	B (5≤B<10)	≥ 100 nM	Ki (CDK9/CyclinT1 [5]): ≥ 100 nM
O=C1NCCCCCCOc2cccc(n2)Nc2ncc(cn2)[C@@H]2CC[C@@H](C2)O1 [Compound 112]	25 to 100 nM	B (5≤B<10)	B (5≤B<10)	≥ 100 nM	Ki (CDK9/CyclinT1 [5]): ≥ 100 nM
O=C1NCCCCCOc2cccc(n2)Nc2ncc(cn2)[C@@H]2CC[C@@H](C2)O1 [Compound 113]	≥ 100 nM	B (5≤B<10)	B (5≤B<10)	≥ 100 nM	–
O=C1NCCCCOc2cccc(n2)Nc2ncc(cn2)[C@@H]2CC[C@@H](C2)O1 [Compound 114]	25 to 100 nM	B (5≤B<10)	B (5≤B<10)	≥ 100 nM	–
O=C1NCCCCCCNS(=O)(=O)c2ccc(cc2)Nc2ncc(cn2)[C@@H]2CC[C@@H](C2)O1 [Compound 115]	≥ 100 nM	B (5≤B<10)	C (C<5)	≥ 100 nM	–
